From PMC3579927, “Identification of a Small Molecule That Selectively Inhibits Mouse PC2 over Mouse PC1/3: A Computational and Experimental Study” (PLoS ONE, 2013)

How the values were obtained:
Type in all cases: biochemical
[1] = biological target: T1, prohormone convertase 2 (PC2) (Mus musculus, UniProt P21661); test: fluorogenic enzyme assay with pERTKR-amc, […] inhibition at […] and […] at […]
T1 construct: gene Pcsk2; Recombinant PC2
T1 sequence (P21661 109-637): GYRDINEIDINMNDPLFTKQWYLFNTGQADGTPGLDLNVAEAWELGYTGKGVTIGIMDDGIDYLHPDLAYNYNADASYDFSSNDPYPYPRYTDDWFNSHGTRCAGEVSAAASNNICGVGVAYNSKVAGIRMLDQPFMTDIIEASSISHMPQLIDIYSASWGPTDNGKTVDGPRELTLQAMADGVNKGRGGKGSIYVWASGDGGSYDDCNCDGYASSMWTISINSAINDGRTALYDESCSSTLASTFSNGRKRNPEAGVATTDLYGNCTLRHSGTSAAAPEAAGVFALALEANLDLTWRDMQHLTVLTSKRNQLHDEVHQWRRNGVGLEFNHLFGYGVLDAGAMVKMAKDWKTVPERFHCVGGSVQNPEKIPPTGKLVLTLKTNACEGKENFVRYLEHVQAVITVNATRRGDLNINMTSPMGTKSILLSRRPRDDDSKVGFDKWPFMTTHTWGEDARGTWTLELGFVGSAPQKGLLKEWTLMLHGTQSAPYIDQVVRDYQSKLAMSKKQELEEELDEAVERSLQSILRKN

[2] = biological target: T2, prohormone convertase 1/3 (PC1/3) (Mus musculus, UniProt P63239); test: enzyme assay, stimulation of activity at […]
T2 construct: gene Pcsk1
T2 sequence (P63239 111-753): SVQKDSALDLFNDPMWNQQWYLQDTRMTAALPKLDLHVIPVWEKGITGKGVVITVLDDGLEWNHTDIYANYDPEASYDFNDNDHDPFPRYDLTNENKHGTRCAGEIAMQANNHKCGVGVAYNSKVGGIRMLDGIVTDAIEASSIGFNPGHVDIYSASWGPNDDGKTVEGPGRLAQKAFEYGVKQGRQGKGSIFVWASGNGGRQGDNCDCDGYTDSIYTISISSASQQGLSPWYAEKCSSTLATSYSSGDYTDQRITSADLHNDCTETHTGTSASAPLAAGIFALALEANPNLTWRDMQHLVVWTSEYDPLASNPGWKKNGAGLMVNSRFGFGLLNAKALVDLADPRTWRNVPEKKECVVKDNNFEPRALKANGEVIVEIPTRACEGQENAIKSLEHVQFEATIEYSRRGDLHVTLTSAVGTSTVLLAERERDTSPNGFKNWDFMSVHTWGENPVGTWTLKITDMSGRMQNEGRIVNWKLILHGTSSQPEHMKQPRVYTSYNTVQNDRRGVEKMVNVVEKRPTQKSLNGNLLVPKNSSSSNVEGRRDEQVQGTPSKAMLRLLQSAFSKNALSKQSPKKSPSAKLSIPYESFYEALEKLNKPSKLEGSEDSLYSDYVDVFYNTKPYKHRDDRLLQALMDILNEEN

[3] = biological target: T1, prohormone convertase 2 (PC2); test: fluorogenic enzyme assay, stimulation of activity at […]; details: read-out: % inhibition at 50 μM (negative = stimulation)
[4] = biological target: T1, prohormone convertase 2 (PC2); test: fluorogenic enzyme assay with pERTKR-amc, IC50 and inhibition kinetics

SMILES: CCOC(=O)C(=CN/N=c1/cc[nH]c2cc(Cl)ccc12)C(=O)OCC [BTB03195]
- inhibition at 50 µM [1]: 71%
- inhibition at 50 µM [2]: -41%

SMILES: NCCCN=c1ccc2c3c1c(O)c1c(O)ccc(=O)c1c3[nH]n2CCNCCO [JFD02062]
- inhibition at 50 µM [3]: -60%

SMILES: OC[C@@H](O)[C@H](O)[C@H](O)[C@@H](O)[C@@H]1NCCS1 [RJC00847]
- Ki [4]: 0.69 ± 0.08 µM
